Assay results from the supplement of paper PMC10307832.

Columns and labels:
Assay in all cases: relative viability (nuclei count vs DMSO), 5 days (fraction); higher = more cells survive
Dovitinib + Navitoclax = compound: CN1CCN(c2ccc3nc(-c4c(N)c5c(F)cccc5[nH]c4=O)[nH]c3c2)CC1 [Dovitinib] + CC1(C)CCC(c2ccc(Cl)cc2)=C(CN2CCN(c3ccc(C(=O)NS(=O)(=O)c4ccc(N[C@H](CCN5CCOCC5)CSc5ccccc5)c(S(=O)(=O)C(F)(F)F)c4)cc3)CC2)C1 [Navitoclax] (partner 0.5 µM)
In short: (§1)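 Relative viability divides the nuclei count in treated wells by that in vehicle wells. Lung cancer cell lines were seeded in 1536-well plates, dosed by pin tool the next day, and fixed and stained after 5 days in one step with final 0.05% Triton X-100, 1% formaldehyde and 1 ug/ml Hoechst. Dosing was a single drug or a fixed anchor-drug dose plus five library-drug doses (not always all listed) in √10 steps, and values are medians of duplicate plates imaged at 4×.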

Dovitinib + Luminespib = compound: CN1CCN(c2ccc3nc(-c4c(N)c5c(F)cccc5[nH]c4=O)[nH]c3c2)CC1 [Dovitinib] + CCNC(=O)c1noc(-c2cc(C(C)C)c(O)cc2O)c1-c1ccc(CN2CCOCC2)cc1 [Luminespib] (partner 0.01 µM)
In short: as §1

Dovitinib + Foretinib = compound: CN1CCN(c2ccc3nc(-c4c(N)c5c(F)cccc5[nH]c4=O)[nH]c3c2)CC1 [Dovitinib] + COc1cc2c(Oc3ccc(NC(=O)C4(C(=O)Nc5ccc(F)cc5)CC4)cc3F)ccnc2cc1OCCCN1CCOCC1 [Foretinib] (partner 0.25 µM)
In short: as §1

Dovitinib + Linsitinib = compound: CN1CCN(c2ccc3nc(-c4c(N)c5c(F)cccc5[nH]c4=O)[nH]c3c2)CC1 [Dovitinib] + C[C@]1(O)C[C@@H](c2nc(-c3ccc4ccc(-c5ccccc5)nc4c3)c3c(N)nccn32)C1 [Linsitinib] (partner 1 µM)
In short: as §1

Cell Line	relative viability (Dovitinib + Navitoclax; first compound 0.02 µM)	relative viability (Dovitinib + Navitoclax; first compound 0.06325 µM)	relative viability (Dovitinib + Navitoclax; first compound 0.2 µM)	relative viability (Dovitinib + Navitoclax; first compound 0.6325 µM)	relative viability (Dovitinib + Navitoclax; first compound 2 µM)	relative viability (Dovitinib + Luminespib; first compound 0.02 µM)	relative viability (Dovitinib + Luminespib; first compound 0.06325 µM)	relative viability (Dovitinib + Luminespib; first compound 0.2 µM)	relative viability (Dovitinib + Luminespib; first compound 0.6325 µM)	relative viability (Dovitinib + Luminespib; first compound 2 µM)	relative viability (Dovitinib + Foretinib; first compound 0.02 µM)	relative viability (Dovitinib + Foretinib; first compound 0.06325 µM)	relative viability (Dovitinib + Foretinib; first compound 0.2 µM)	relative viability (Dovitinib + Foretinib; first compound 0.6325 µM)	relative viability (Dovitinib + Foretinib; first compound 2 µM)	relative viability (Dovitinib + Linsitinib; first compound 0.02 µM)	relative viability (Dovitinib + Linsitinib; first compound 0.06325 µM)	relative viability (Dovitinib + Linsitinib; first compound 0.2 µM)	relative viability (Dovitinib + Linsitinib; first compound 0.6325 µM)	relative viability (Dovitinib + Linsitinib; first compound 2 µM)
NCI-H647	0.958	1.04	1.14	1.04	0.949	0.16	0.192	0.127	0.183	0.179	1.23	1.15	1.39	1.17	1.26	1.1	1.15	1.16	1.06	1.27
NCI-H727	0.497	0.491	0.421	0.468	0.414	0.272	0.373	0.285	0.322	0.373	0.815	0.689	0.747	0.799	0.706	0.271	0.325	0.314	0.298	0.408
NCI-H838	1.11	1.19	1.17	1.22	1.11	0.277	0.307	0.349	0.25	0.289	1.05	1.02	1.04	0.937	0.961	0.97	1.05	0.999	1.01	0.977
NCI-H1355	0.917	0.958	1.04	0.985	1.08	0.716	0.781	0.829	0.827	0.68	0.943	0.932	0.713	0.976	0.903	0.821	0.886	0.856	0.801	0.812
NCI-H1395	1.26	1.53	1.26	1.01	1.21	0.703	0.661	0.757	0.629	0.665	1.07	1.12	0.935	0.947	1.02	1.05	1.29	1.24	1.06	1.12
NCI-H1437	1.01	1.05	1.05	1.05	1.07	1.07	1.12	1.13	0.985	1.07	1.24	1.29	1.22	1.2	1.27	0.963	1.05	0.984	0.955	1.03
NCI-H1651	1.09	1.04	1.03	1.02	1.03	0.901	0.902	0.996	0.752	0.683	0.899	0.792	0.836	0.796	0.721	1.05	0.895	0.902	0.929	0.936
NCI-H1666	0.835	0.966	0.887	0.901	1.03	1.02	0.991	1.07	0.997	0.972	1.02	0.975	0.961	0.99	0.961	0.793	0.687	0.859	0.764	0.896
